Data from patent publication US20260007652A1, “Selective Modulators of AhR-Regulated Transcription and Method for Using Such Modulators to Treat Cancer” (OREGON STATE UNIVERSITY, priority 2022, published 2026).
pIC50: −log10 of the molar value.

Experiments:
[1] = tested on: HCC1187 cells; assay: Cell viability assay, HCC1187 TNBC cells; assay type: cell-based, human
Protocol: (§1) Viability assays were performed by seeding cells at a density of 2000 cells per well in 96-well plates, and the following day, treating with compounds for 48 or 72 hours as indicated. Viability was determined by ATP-based Cell-Titer Glo Viability Assay (Promega, Madison WI). Luminescence was measured using the Tropix TR717 microplate luminometer. Viability of treated cells was determined by relativizing to vehicle (0.1-0.3% DMSO) treated wells. For profiling the activity of Analog 523 against the panel of triple-negative breast cancer cell lines, 72-hour treatments are represented.

[2] = tested on: MDA-MB-468 cells; assay: Cell-Titer Glo viability assay, MDA-MB-468 AhR WT and AhR KO cells; assay type: cell-based, human
Protocol: as §1
Analogs of 11-Cl-BBQ were synthesized by Praxis Precision Medicines. Screening was performed using MDA-MB-468 AhR WT and AhR KO cells previously described. Cells were seeded in 10% serum or 2% serum containing media with 1% Pen/Strep at a density of 2000 cell/well in 96-well plates. 20 hours post-seeding, cells were treated with 0.1 μM, 1 μM, or 10 μM of each analog (final DMSO concentration 0.1%-0.2%). After 48 and 72 hours, cells were harvested. The ATP-Based CellTiter Glo Assay kit (Promega, Madison, WI) was used for measuring cell viability.

[3] = tested on: primary human mammary epithelial cells (HMECs) and MCF10A; assay: Cell viability, primary human mammary epithelial cells (HMECs) and MCF10A; assay type: cell-based; conditions: 72-hour exposure
Protocol: as §1
All cell lines, except for the ST1 and ST2 cells were purchased from ATCC, and maintained in 5% CO2, at 37° C., in DMEM or RPMI media containing 10% FBS, and 1% penicillin/streptomycin. All HCC-cell lines were maintained in RPMI. All MDA-cell lines were maintained in DMEM. ZR-75I cells were maintained in RPMI. SKBR3 cells were maintained in DMEM. MCF10A cells were maintained in DMEM/F12 medium with the following supplements added: 5% horse serum, 20 ng/mL epidermal growth factor, […] hydrocortisone, 100 ng/mL cholera toxin, 10 μg/mL insulin, 1% Pen/Strep. Primary human mammary epithelial cells (HMECs) were obtained from Lonza Biosciences (Basel, Switzerland) and were maintained according to the specified culture protocols in Clonetics™ Mammary Epithelial Basal Medium (Lonza). […]

[4] = tested on: HCC70 cells; assay: Cell viability assay, HCC70 TNBC cells; assay type: cell-based, human
Protocol: as §1

[5] = tested on: AhR; assay: Xenobiotic response element (XRE) driven reporter in Hepa-1 cells, AhR activation; assay type: cell-based, mouse; conditions: 16 hours
Protocol: FIGS. 69A-69D show representative 11-Cl-BBQ analogs (848 and 849) as non-classical AHR ligands. (A) Stability of AHR protein in the H460 whole cell lysate in the presence or absence of 11-Cl-BBQ (5 μM), PRXS-848 (10 μM), and PRXS-849 (10 μM) at the indicated temperatures; GADPH was used as a loading control. (B) Localization of AHR protein in the H460 treated with 11-Cl-BBQ (100 nM), PRXS-848 (250 nM), PRXS-849 (250 nM), or vehicle control (0.1% DMSO) for two hours; top horizontal panel: AHR protein staining using an AHR-specific antibody conjugated with FITC (green) fluorophore; middle panel: DAPI staining; bottle panel: overlaid images from the top panel and the middle panel in the same column. (C) AHR activation (measured by XRE-luciferase reporter assay in Hepa1 cells) of the parental lead 11-Cl-BBQ and analogs PRXS-848 and PRXS-849 at the indicated concentrations for 16 hours. (D) AHR activation of 11-Cl-BBQ cotreated with a known AHR antagonist CH223191 (1 μM) or 11-Cl-BBQ analogs PRXS-848 and PRXS-849 at the indicated concentrations for 16 hours.
FIG. 76 presents representative AhR compounds (BBQ analogs) of the invention effective for activation of AhR transcription. Activation values greater than 1 at 100 nM were considered a hit with nanomolar affinity to promote AhR activity and synergize with the identified compounds from the synergy screens. Referring to FIG. 76, Fold@ 1 nM refers to activation of AhR transcription at 1 nM; Fold@100 nM refers to activation of AbR transcription at 100 nM; and Fold rel @ 100 refers to relative activation at 100 nM compared to parental compound, 11-Cl-BBQ. The representative AhR ligand compounds presented in FIG. 76 activate AhR transcription and therefore are useful as anti-cancer agents, either alone or in combination with the synergizing compounds (and chemotherapeutic agents) described herein.
was identified as a top hit compound based on its potent (>50% inhibition at 0.1 μM), and selective activity against AhR WT cells versus AhR KO cells (>70% difference between WT and KO cells at 10 μM) (FIG. 11). […] This confirmed Analog 523 activates AhR-mediated transcription and functions as an AhR ligand.

[6] = tested on: ST2 cells; assay: Cell viability assay, TNBC stem cells ST2; assay type: cell-based; conditions: Homo sapiens, ST-2; 100 nM; 48 hours
Protocol: as §1
ST1 and ST2 cells were cultured in Mammary epithelial growth medium (Biowhitakker) (Lonza), with the following supplements: Epidermal growth factor (20 ng/mL) (Sigma), basic fibroblast growth factor (20 ng/mL) (BD Biosciences), Heparin (4 μg/mL) (Sigma), B27 Supplement (Invitrogen), Penicillin/Streptomycin (Omega), Gentamycin (35 μg/mL) (Sigma). Cells were gently passaged with Accutase solution. The isolation and characterization of the ST1 and ST2 lines have been previously described (Strietz et al., 2021).

[7] = rats; cited from earlier work
[8] = tested on: SKBR-3 HER2+ breast cancer cells; assay: Cell viability assay, SKBR-3 HER2+ breast cancer cells; assay type: cell-based, human; conditions: 72 hours
Protocol: as §1

[9] = tested on: MDA-MB-468 cells; assay: Transcriptional profiling by RNA-Seq, MDA-MB-468 AhR WT cells; assay type: cell-based, human; conditions: 250 nM
Protocol: MDA-MB-468 AhR WT and AhR KO cells were seeded in 10 cm plates (3.5 million cells/plate) and allowed to attach overnight. The following day, media was replaced with fresh media containing 250 nM of Analog 523 or Vehicle (0.1% DMSO). Treatments were performed in triplicate. At 4 hours and 12 hours post-treatment, samples were harvested by addition of 700 μL of TRK-Lysis buffer and RNA isolation then performed according to the manufacturer's instructions (E.Z.N.A. Total RNA Kit, Omega Bio-Tek, Norcross, GA). Samples were quantified and 260/280 and 260/230 values inspected by NanoDrop. Samples were then sent for quality control, library preparation (poly-A enrichment) and sequencing at Novogene. Sequencing was performed with 150 bp paired-end reads to a depth of 20 million reads […].

Compound: O=c1c2cccc3cccc(c32)c2nc3ccccc3n12 [Analog 523, 7H-benzimidazo[2,1-a]benzo[de]isoquinolin-7-one]
- pIC50 ([1]; Homo sapiens, HCC1187, 72-hour treatment): 7.09
- inhibition (cell viability) ([1]; at <0.5 μM, 72 hours): > 50%
- difference between WT and KO cells (cell viability) ([2]; 10 μM, AhR WT versus AhR KO): > 70%
- percent inhibition of cell viability at 0.1 µM ([2]; Homo sapiens, 0.1 μM, AhR WT MDA-MB-468 cells): > 50%
- pIC50 ([2]; Homo sapiens, MDA-MB-468, 72-hour treatment): 7.39
- inhibition (cell viability) ([2]; at <0.5 μM, 72 hours): > 50%
- inhibition of cell viability in normal mammary epithelial cells ([3]; 10 μM): ~20%
- cytotoxicity in normal mammary epithelial cells ([3]; 0.01-10 μM): did not induce any cytotoxicity
- pIC50 ([4]; Homo sapiens, HCC70, 72-hour treatment): 6.81
- inhibition (cell viability) ([4]; at <0.5 μM, 72 hours): > 50%
- receptor activation (XRE reporter) ([5]; 100 μM): ~2 fold
- maximal reporter induction ([5]; approximately 100 nM): 10-12 fold
- inhibition of cell viability at 0.1 µM [6]: > 50%
- LD50 [7]: 660 mg/kg
- concentrations at which cell line was sensitive (viability) [8]: > 1 µM
- BIK mRNA induction [9]: ~1.5 fold
- BMF mRNA induction [9]: 4-5 fold
- PMA1P1 mRNA induction [9]: ~1.5 fold
- IER3 mRNA increase ([9]; 12 hours): greater than 6 fold
- OSGIN1 mRNA increase ([9]; 12 hours): > 4 fold
